# Measured values: US20240246946A1, “MODULATORS OF TREX1” (Constellation Pharmaceuticals, Inc., priority 2021, published 2024)
# pIC50: −log10 of the molar value.
# Tests used:
# hTREX1 = biological target: T1, hTREX1 (Homo sapiens, UniProt Q9NSU2); test: hTREX1 HCT116 Cell Assay (HCT116 dual cells, Lucia luciferase reporter of Type I interferon induction); type: cell-based; conditions: TREX1i 4 h before pBR322/BstNI transfection, read after 48 h
# T1 construct: host or cells: HCT116 dual cells
# T1 sequence (Q9NSU2 1-314): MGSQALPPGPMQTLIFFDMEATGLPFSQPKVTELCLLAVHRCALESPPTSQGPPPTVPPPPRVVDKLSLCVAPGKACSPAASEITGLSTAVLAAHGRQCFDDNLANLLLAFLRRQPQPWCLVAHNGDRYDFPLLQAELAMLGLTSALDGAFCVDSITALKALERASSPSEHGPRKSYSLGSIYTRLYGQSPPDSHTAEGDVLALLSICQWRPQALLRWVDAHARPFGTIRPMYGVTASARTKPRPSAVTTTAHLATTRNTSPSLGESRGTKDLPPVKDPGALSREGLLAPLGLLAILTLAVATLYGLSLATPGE
# Procedure, shortened: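 HCT116 dual cells carrying an ISRE-type STAT1/STAT2-driven secreted Lucia luciferase reporter were pretreated with TREX1 inhibitor for 4 h (≤0.1% DMSO), then transfected with pBR322/BstNI DNA (100 ng/well, Lipofectamine LTX). Luciferase in medium read after 48 h at 37 °C.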
# full length mouse TREX1 = biological target: T2, full length mouse TREX1 (Mus musculus, UniProt Q91XB0); test: mTREX1 Biochemical Assay (fluorescence, dsDNA substrate degradation); conditions: biochemical, read-out: mTREX1 IC50
# T2 construct: N-terminally His-Tev tagged full length mouse TREX1; made in house; host or cells: E. coli
# T2 sequence (Q91XB0 1-314): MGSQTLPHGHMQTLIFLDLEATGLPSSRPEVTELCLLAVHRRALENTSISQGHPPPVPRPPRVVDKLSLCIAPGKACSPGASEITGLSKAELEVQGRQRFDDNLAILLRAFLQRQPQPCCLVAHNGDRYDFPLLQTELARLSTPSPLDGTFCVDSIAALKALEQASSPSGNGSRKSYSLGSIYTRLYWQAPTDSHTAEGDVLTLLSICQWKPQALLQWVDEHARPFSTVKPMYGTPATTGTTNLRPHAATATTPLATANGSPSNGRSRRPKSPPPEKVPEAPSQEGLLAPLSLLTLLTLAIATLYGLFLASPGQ
# Procedure, shortened: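 Reaction run 18 h at 25° C. with 60 nM TEX615/quencher-labelled dsDNA and 6 pM mouse TREX1 in Tris buffer (pH 7.4, 5 mM MgCl2, 1.0% DMSO), enzyme having sat 4 h with compound across 10 concentrations. EDTA quench; substrate degradation measured as fluorescence increase.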
# full length human TREX1 = biological target: T3, full length human TREX1 (Homo sapiens, UniProt Q9NSU2); test: hTREX1 Biochemical Assay (fluorescence, dsDNA substrate degradation); conditions: biochemical, read-out: hTREX1 IC50
# T3 construct: N-terminally His-Tev tagged full length human TREX1; made in house; host or cells: E. coli
# T3 sequence (Q9NSU2 1-314): T1 sequence (Q9NSU2 1-314)
# Procedure, shortened: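 Cleavage of 60 nM TEX615/quencher-labelled dsDNA in pH 7.4 Tris buffer with 5 mM MgCl2, 1.0% DMSO, run 18 hours at 25° C, EDTA-quenched; fluorescence read-out.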
# [1] = biological target: T4, human TREX2 (residues M44-A279) (Homo sapiens, UniProt Q9BQ50); test: hTREX2 Biochemical Assay (fluorescence, dsDNA substrate degradation); conditions: biochemical selectivity for hTREX1 vs hTREX2
# T4 construct: human TREX2 (residues M44-A279, expressed in E. coli); made in house; host or cells: E. coli
# T4 sequence (Q9BQ50 44-279 isoform Q9BQ50-1): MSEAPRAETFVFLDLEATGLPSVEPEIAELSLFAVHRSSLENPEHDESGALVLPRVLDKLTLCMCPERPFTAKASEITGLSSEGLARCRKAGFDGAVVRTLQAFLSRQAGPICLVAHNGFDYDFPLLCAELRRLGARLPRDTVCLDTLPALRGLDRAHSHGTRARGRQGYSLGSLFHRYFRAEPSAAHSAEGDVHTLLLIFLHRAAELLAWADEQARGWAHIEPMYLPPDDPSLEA
# Procedure, shortened: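 N-His-Tev E. coli enzyme (50 pM) pre-incubated with compound 4 h at 25 °C, then 60 nM TEX615/quencher dsDNA added; 18 h at 25 °C, pH 7.4 Tris buffer with 5 mM MgCl2, 1.0% DMSO. EDTA-quenched; fluorescence 570 ex/615 em from liberated fluorophore, 10-point dose-response.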
SMILES,pIC50 (hTREX1),pIC50 (full length mouse TREX1),pIC50 (full length human TREX1),hTREX1 vs hTREX2 selectivity [1]
"COCCn1ncc(C(c2cc(F)ccc2C#N)C(C)c2nc(C(=O)Nc3cnoc3)c(O)c(=O)n2C)c1C (single isomer, unassigned) [Example 104 D1E1]",< 7.00,8.00 to 9.00,8.00 to 9.00,B (B = 25 to 50-fold selective for hTREX1)
"CC(c1nc(C(=O)Nc2cnoc2)c(O)c(=O)n1C)C(c1cnn(C(C)C)c1)c1ccccc1C#N (single isomer, unassigned) [Example 105 D2E1]",< 7.00,< 8.00,8.00 to 9.00,A (A = <25 fold selective for hTREX1)
"CC(c1nc(C(=O)Nc2cnoc2)c(O)c(=O)n1C)C(c1cnn(C2COC2)c1)c1ccccc1C#N (single isomer, unassigned) [Example 106 D1E1]",7.00 to 8.00,8.00 to 9.00,> 9.00,B (B = 25 to 50-fold selective for hTREX1)
"COCCn1ncc(C(c2cc(F)ccc2Cl)C(C)c2nc(C(=O)Nc3cnoc3)c(O)c(=O)n2C)c1C (single isomer, unassigned) [Example 108 D1E1]",< 7.00,< 8.00,8.00 to 9.00,A (A = <25 fold selective for hTREX1)
"COCCn1ncc(C(c2cc(F)ccc2Cl)C(C)c2nc(C(=O)Nc3cnoc3)c(O)c(=O)n2C)c1C (single isomer, unassigned) [Example 108 D2E1]",7.00 to 8.00,< 8.00,8.00 to 9.00,A (A = <25 fold selective for hTREX1)
"Cc1nn(C)c(C)c1C(c1cc(F)ccc1C#N)C(C)c1nc(C(=O)Nc2cnoc2)c(O)c(=O)n1C (single isomer, unassigned) [Example 109 D1E1]",7.00 to 8.00,8.00 to 9.00,> 9.00,B (B = 25 to 50-fold selective for hTREX1)
"Cc1cc(C(c2cc(F)ccc2Cl)C(C)c2nc(C(=O)Nc3cnoc3)c(O)c(=O)n2C)n(C)n1 (single isomer, unassigned) [Example 113 D1E1]",7.00 to 8.00,< 8.00,< 8.00,C (C = >50 fold selective for hTREX1)
"Cc1cnc(C(c2ccccc2Cl)C(C)c2nc(C(=O)Nc3cnoc3)c(O)c(=O)n2C)cn1 (single isomer, unassigned) [Example 116 D1E1]",< 7.00,< 8.00,< 8.00,A (A = <25 fold selective for hTREX1)
"Cc1cnc(C(c2ccccc2Cl)C(C)c2nc(C(=O)Nc3cnoc3)c(O)c(=O)n2C)cn1 (single isomer, unassigned) [Example 116 D1E2]",7.00 to 8.00,8.00 to 9.00,> 9.00,B (B = 25 to 50-fold selective for hTREX1)
"Cc1cnc(C(c2ccccc2Cl)C(C)c2nc(C(=O)Nc3cnoc3)c(O)c(=O)n2C)cn1 (single isomer, unassigned) [Example 116 D2E1]",< 7.00,< 8.00,8.00 to 9.00,A (A = <25 fold selective for hTREX1)
"Cc1cnc(C(c2cc(F)ccc2Cl)C(C)c2nc(C(=O)Nc3cnoc3)c(O)c(=O)n2C)cn1 (single isomer, unassigned) [Example 117 D1E2]",> 8.00,8.00 to 9.00,> 9.00,A (A = <25 fold selective for hTREX1)
"Cc1cnc(C(c2cc(F)ccc2Cl)C(C)c2nc(C(=O)Nc3cnoc3)c(O)c(=O)n2C)cn1 (single isomer, unassigned) [Example 117 D2E1]",< 7.00,< 8.00,8.00 to 9.00,A (A = <25 fold selective for hTREX1)
"CC(c1nc(C(=O)Nc2cnoc2)c(O)c(=O)n1C)C(c1cnc(C(F)(F)F)cn1)c1ccccc1C#N (single isomer, unassigned) [Example 118 D1E1]",7.00 to 8.00,8.00 to 9.00,8.00 to 9.00,B (B = 25 to 50-fold selective for hTREX1)
"CC(c1nc(C(=O)Nc2cnoc2)c(O)c(=O)n1C)C(c1cnc(C(F)(F)F)cn1)c1ccccc1C#N (single isomer, unassigned) [Example 118 D2E1]",< 7.00,< 8.00,8.00 to 9.00,B (B = 25 to 50-fold selective for hTREX1)
"Cc1cnc(C)c(C(c2cc(F)ccc2C#N)C(C)c2nc(C(=O)Nc3cnoc3)c(O)c(=O)n2C)n1 (single isomer, unassigned) [Example 119 D1E2]",< 7.00,< 8.00,< 8.00,B (B = 25 to 50-fold selective for hTREX1)

# Second part, the molecule after the results:
pIC50 (hTREX1),pIC50 (full length mouse TREX1),pIC50 (full length human TREX1),hTREX1 vs hTREX2 selectivity [1],SMILES
7.00 to 8.00,> 9.00,> 9.00,C (C = >50 fold selective for hTREX1),"COCCn1cc(C(c2cc(F)ccc2C#N)C(C)c2nc(C(=O)Nc3cnoc3)c(O)c(=O)n2C)c(C)n1 (single isomer, unassigned) [Example 103 D1E2]"
< 7.00,< 8.00,8.00 to 9.00,A (A = <25 fold selective for hTREX1),"COCCn1cc(C(c2cc(F)ccc2C#N)C(C)c2nc(C(=O)Nc3cnoc3)c(O)c(=O)n2C)c(C)n1 (single isomer, unassigned) [Example 103 D2E1]"
< 7.00,8.00 to 9.00,> 9.00,C (C = >50 fold selective for hTREX1),"COCCn1nc(C)c(C(c2cc(F)ccc2C#N)C(C)c2nc(C(=O)Nc3cnoc3)c(O)c(=O)n2C)c1C (single isomer, unassigned) [Example 110 D1E1]"
< 7.00,< 8.00,> 9.00,C (C = >50 fold selective for hTREX1),"Cc1cc(C(c2cc(F)ccc2C#N)C(C)c2nc(C(=O)Nc3cnoc3)c(O)c(=O)n2C)n(C)n1 (single isomer, unassigned) [Example 111 D2E1]"
7.00 to 8.00,8.00 to 9.00,> 9.00,C (C = >50 fold selective for hTREX1),"Cc1cc(C(c2cc(F)ccc2C#N)C(C)c2nc(C(=O)Nc3cnoc3)c(O)c(=O)n2C)nn1C (single isomer, unassigned) [Example 112 D1E1]"
< 7.00,< 8.00,8.00 to 9.00,A (A = <25 fold selective for hTREX1),"Cc1cc(C(c2cc(F)ccc2C#N)C(C)c2nc(C(=O)Nc3cnoc3)c(O)c(=O)n2C)nn1C (single isomer, unassigned) [Example 112 D2E1]"
< 7.00,< 8.00,8.00 to 9.00,C (C = >50 fold selective for hTREX1),"Cc1cnc(C(c2cc(F)ccc2C#N)C(C)c2nc(C(=O)Nc3cnoc3)c(O)c(=O)n2C)cn1 (single isomer, unassigned) [Example 115 D2E2]"
< 7.00,< 8.00,8.00 to 9.00,C (C = >50 fold selective for hTREX1),"Cc1cnc(C)c(C(c2cc(F)ccc2C#N)C(C)c2nc(C(=O)Nc3cnoc3)c(O)c(=O)n2C)n1 (single isomer, unassigned) [Example 119 D2E1]"
< 7.00,< 8.00,< 8.00,A (A = <25 fold selective for hTREX1),"Cc1cnc(C)c(C(c2cc(F)ccc2C#N)C(C)c2nc(C(=O)Nc3cnoc3)c(O)c(=O)n2C)n1 (single isomer, unassigned) [Example 119 D2E2]"
